We go through 13 compounds from paper PMC11618697 (Nature Communications, 2024).

Residues, ends and D or L forms follow the SMILES beside them. *: point of attachment. Cbz = O=C(OCc1ccccc1)*

Data set [1] concerns Hut78 cells. As to the kind of experiment: Cell proliferation assays. The class given is cell-based, human.
Data set [2] concerns CD25, CD5 and CD7 on HH and Hut78 cells. As to the kind of experiment: Flow cytometry of CD25, CD5 and CD7. The class given is cell-based, human. To be noted: 2 µM, 48 hours. Background: In flow cytometry, cells or beads pass a laser one at a time.
Another data set deals with human CD25. As to the kind of experiment: IHC staining of human CD25 in Hut78 xenograft tumors. The class given is in vivo, NSG mice.
Data set [3] concerns Foxp3 in HH and Hut78 cells. As to the kind of experiment: Intracellular staining of Foxp3. The class given is cell-based, human. To be noted: 1 µM, 48 h.
In data set [4] the test system is Hut78 cells. The data set can be described thus: IC50 assay, trypan blue exclusion count. The class given is cell-based, human.
Data set [5] relates to HH cells. The data set can be described thus: Candidate PROTACs, cell viability by CCK8. Conditions: CCK8 (Fig 3c). The class given is cell-based, human.
The subject of a further data set is 293T cells. The data set can be described thus: Viability of normal cells, trypan blue. The class given is cell-based, human.
The subject of the next data set is Hut78 xenografts. The data set can be described thus: Hut78 cell line derived xenograft in NSG mice. The class given is in vivo.
In the next data set the test system is Hut78 cell proteins. The data set can be described thus: Quantitative MS-based proteomics of Hut78 cells. The class given is cell-based, human.
The target in data set [6] is T1, CDK9 (Homo sapiens, UniProt P50750). The data set can be described thus: IHC staining of human CDK9 in Hut78 xenograft tumors. The class given is in vivo, NSG mice. To be noted: intraperitoneal injection.
T1 sequence (P50750 whole entry): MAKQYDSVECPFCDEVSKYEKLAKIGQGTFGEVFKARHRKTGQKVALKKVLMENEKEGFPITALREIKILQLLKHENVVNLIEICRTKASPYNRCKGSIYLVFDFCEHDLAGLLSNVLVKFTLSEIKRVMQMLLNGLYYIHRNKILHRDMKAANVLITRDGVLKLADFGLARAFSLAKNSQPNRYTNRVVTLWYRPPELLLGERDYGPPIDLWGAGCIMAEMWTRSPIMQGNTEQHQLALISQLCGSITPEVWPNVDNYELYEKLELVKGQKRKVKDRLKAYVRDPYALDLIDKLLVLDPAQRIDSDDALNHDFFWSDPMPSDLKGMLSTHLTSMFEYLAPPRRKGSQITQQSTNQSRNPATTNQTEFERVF
Data set [7] concerns the target T1, CDK9. As to the kind of experiment: Western blot of CDK9 in Hut78 cells. Conditions: for degradation of CDK9 (immunoblot): Hut78 cells. The class given is cell-based.
Data set [8] deals with HH cells. The data set can be described thus: IC50 assay, trypan blue exclusion count. The class given is cell-based. Conditions: Homo sapiens, 48 h.
In data set [9] the target is T1, CDK9. The data set can be described thus: DC50. To be noted: CDK9 in Hut78 cells; 10 h. The class given is cell-based.
The subject of another data set is CDK2, CDK6 and CDK7. As to the kind of experiment: Western blot of other CDKs in Hut78 cells. The class given is cell-based, human. On the technique in general: A western blot detects proteins with antibodies after separation by electrophoresis.
The test system of data set [10] is CDK9 (55 kDa) and CDK9 (42 kDa) mRNA. The data set can be described thus: Q-PCR of CDK9 isoforms in Hut78 cells. The class given is cell-based, human.
A further data set concerns RARα. The data set can be described thus: Western blot of RARα in Hut78 cells. The class given is cell-based, human.
The subject of a further data set is RARA mRNA. The data set can be described thus: Q-PCR of RARA in Hut78 cells. The class given is cell-based, human.
In another data set the test system is HH tumors. As to the kind of experiment: HH cell line derived xenograft in nude mice. The class given is in vivo.
For data set [11], the target named is T1, CDK9. The class given is cell-based. Conditions: Hut78; 10 μM for 2 h prior to 6-h of GT-02897 (100 nM).
Data set [12] has as its system Hut78 cells. As to the kind of experiment: Cell viability / cell death at fixed dose, trypan blue. To be noted: 250 nM, trypan blue (Supplementary Fig 4a).
For data set [13], the target named is T1, CDK9. As to the kind of experiment: Western blot of CDK9 in MOLT-4 cells. Conditions: MOLT-4 acute lymphoblastic leukemia cell line. The class given is cell-based.
Data set [14] concerns CDK9. The data set can be described thus: Western blot of CDK9 in HH cells. Conditions: HH cells (Fig 3b).

As for `CC1=C(/C=C/C(C)=C/C=C/C(C)=C/C(=O)O)C(C)(C)CCC1` [ATRA, all-trans retinoic acid], the “CTCL cell growth and apoptosis” value in the data set on Hut78 cells [1] (CTCL cells (Hut78, Fig 7g)) was “significant inhibition of cell growth without cell apoptosis”. In the data set with Hut78 cells [1] (Hut78 infected with shCDK9), the “cell growth of shCDK9-infected Hut78 cells” value is “more pronounced inhibition of cell growth”. Moreover, in [2], the “CD5 and CD7 level (flow cytometry)” value was “unchanged”; the “CD25 expression (flow cytometry)” value is reported as “emerging expression of CD25”. Besides, in the data set with human CD25, the “CD25 expression in isolated tumor tissues (IHC)” value is “in vivo upregulation of CD25 expression”. In addition, the “Expression of Foxp3” value in data set [3] was “not changed”.

One may read the IC50 as the concentration needed to halve the response being measured. In the case of `CC(C)(C)c1cnc(CSc2cnc(NC(=O)C3CCN(C(=O)CCCSc4cccc5c4C(=O)N(C4CCC(=O)NC4=O)C5=O)CC3)s2)o1` (centres unmarked) [Compound 9, N-(5-(((5-(tert-butyl)oxazol-2-yl)methyl)thio)thiazol-2-yl)-1-(4-((2-(2,6-dioxopiperidin-3-yl)-1,3-dioxoisoindolin-4-yl)thio)butanoyl)piperidine-4-carboxamide], half-maximal inhibition in the data set on Hut78 cells [4] (Homo sapiens, HuT78, 48 h) (IC50) required 0.339 µM. In addition, the “concentration displaying significant killing effects” value in the data set with HH cells [5] was “below 500 nM”.

Consider `CC(C)(C)c1cnc(CSc2cnc(NC(=O)C3CCN(C(=O)COCCOCCSc4cccc5c4C(=O)N(C4CCC(=O)NC4=O)C5=O)CC3)s2)o1` (centres unmarked) [Compound 19, N-(5-(((5-(tert-butyl)oxazol-2-yl)methyl)thio)thiazol-2-yl)-1-(2-(2-(2-((2-(2,6-dioxopiperidin-3-yl)-1,3-dioxoisoindolin-4-yl)thio)ethoxy)ethoxy)acetyl)piperidine-4-carboxamide], for which, in the data set on Hut78 cells [4] (Homo sapiens, HuT78, 48 h), half-maximal inhibition (IC50) was put at 0.404 µM. Moreover, the “concentration displaying significant killing effects” value in the data set on HH cells [5] is “below 500 nM”.

With `CC(C)(C)c1cnc(CSc2cnc(NC(=O)C3CCN(CCCCCSc4cccc5c4CN(C4CCC(=O)NC4=O)C5=O)CC3)s2)o1` (centres unmarked) [Compound 23, N-(5-(((5-(tert-butyl)oxazol-2-yl)methyl)thio)thiazol-2-yl)-1-(5-((2-(2,6-dioxopiperidin-3-yl)-1-oxoisoindolin-4-yl)thio)pentyl)piperidine-4-carboxamide], the “killing effects on 293T cell” value with 293T cells is “minimal killing effects”. The “CTCL tumors in vivo, co-administration with ATRA” value in the data set on Hut78 xenografts (Hut78 xenograft) is “more significant inhibition of CTCL tumors in vivo”. In addition, the “Hut78 cell growth in vivo” value in the data set with Hut78 xenografts (every other day, intraperitoneal or subcutaneous injection, 14 days) is recorded as “significantly suppress Hut78 cell growth in vivo”. Also, the “growth inhibition effect in CDK9-depleted (shRNA) Hut78 xenografts” value in the data set with Hut78 xenografts (shCDK9-1 or shCDK9-2) was “significantly impaired the growth inhibition effect of GT-02897”. The IC50 with Hut78 cells [4] (Homo sapiens, HuT78, 48 h) amounted to 0.0497 µM; with HH cells [8] it was 0.0662 µM. For the same compound, the “CDK9 abundance in quantitative proteomics” value in the data set with Hut78 cell proteins (6 h after treatment, 5,689 proteins) is given as “one of the most significantly downregulated proteins”. In addition, the RARα protein result in the data set with Hut78 cell proteins (proteomics 12 hours, validated by western blot) is “significantly upregulated”. Besides, on CDK9 [6], the “CDK9 in isolated tumor tissues (IHC)” value is given as “in vivo degradation of CDK9 by GT-02897 was further confirmed”. Moreover, the “degradation of CDK9 (immunoblot)” value at CDK9 [7] is reported as “strong degradation of CDK9”. This compound yielded a DC50 at CDK9 [9] of 0.00285 µM. The “inhibition of CTCL cells, co-administration with ATRA” value in the data set on Hut78 cells [1] (Hut78, in vitro, cell number by trypan blue) is on record as “more significant inhibition of CTCL cells”. In addition, the “protein levels of CDK2, CDK6 and CDK7 (immunoblot)” value (shortened to “protein levels of CDK2”) in the data set on CDK2, CDK6 and CDK7 was “without interfering protein levels of CDK2, CDK6 and CDK7”. The “mRNA expression of CDK9 (42 kDa) and CDK9 (55 kDa) isoforms” value in data set [10] is recorded as “not affected”.

For the compound `CC(C)(C)c1cnc(CSc2cnc(NC(=O)C3CCN(CCCCCCCCSc4cccc5c4CN(C4CCC(=O)NC4=O)C5=O)CC3)s2)o1` (centres unmarked) [Compound 24, N-(5-(((5-(tert-butyl)oxazol-2-yl)methyl)thio)thiazol-2-yl)-1-(8-((2-(2,6-dioxopiperidin-3-yl)-1-oxoisoindolin-4-yl)thio)octyl)piperidine-4-carboxamide], the “degradation of CDK9 (immunoblot)” value at CDK9 [7] is listed as “strong degradation of CDK9”. The “protein levels of CDK2” value in the data set with CDK2, CDK6 and CDK7 is “without interfering protein levels of CDK2, CDK6 and CDK7”.

Consider `CC(C)(C)c1cnc(CSc2cnc(NC(=O)C3CCN(CCCCSc4cccc5c4C(=O)N(C4CCC(=O)NC4=O)C5=O)CC3)s2)o1` (centres unmarked) [Compound 25, N-(5-(((5-(tert-butyl)oxazol-2-yl)methyl)thio)thiazol-2-yl)-1-(4-((2-(2,6-dioxopiperidin-3-yl)-1,3-dioxoisoindolin-4-yl)thio)butyl)piperidine-4-carboxamide], for which the IC50 in the data set on Hut78 cells [4] (Homo sapiens, HuT78, 48 h) was in the range of 0.05 to 0.165 µM. Also, the “degradation of CDK9 (immunoblot)” value at CDK9 [7] was “strong degradation of CDK9”. In addition, in the data set with CDK2, CDK6 and CDK7, the “protein levels of CDK2” value was “without interfering protein levels of CDK2, CDK6 and CDK7”.

On to `CC(C)(C)c1cnc(CSc2cnc(NC(=O)C3CCN(CCCCCCCSc4cccc5c4C(=O)N(C4CCC(=O)NC4=O)C5=O)CC3)s2)o1` (centres unmarked) [Compound 26, N-(5-(((5-(tert-butyl)oxazol-2-yl)methyl)thio)thiazol-2-yl)-1-(7-((2-(2,6-dioxopiperidin-3-yl)-1,3-dioxoisoindolin-4-yl)thio)heptyl)piperidine-4-carboxamide], for which the IC50 in the data set on Hut78 cells [4] (Homo sapiens, HuT78, 48 h) lay in the range of 0.05 to 0.165 µM. On CDK9 [7], the “degradation of CDK9 (immunoblot)” value is “strong degradation of CDK9”. The “protein levels of CDK2” value with CDK2, CDK6 and CDK7 is “without interfering protein levels of CDK2, CDK6 and CDK7”.

`CC(C)(C)c1cnc(CSc2cnc(NC(=O)C3CCN(CCCCCCCCSc4cccc5c4C(=O)N(C4CCC(=O)NC4=O)C5=O)CC3)s2)o1` (centres unmarked) [Compound 27, N-(5-(((5-(tert-butyl)oxazol-2-yl)methyl)thio)thiazol-2-yl)-1-(8-((2-(2,6-dioxopiperidin-3-yl)-1,3-dioxoisoindolin-4-yl)thio)octyl)piperidine-4-carboxamide]: the IC50 with Hut78 cells [4] (Homo sapiens, HuT78, 48 h) was 0.05 to 0.165 µM.

Consider `CN1CC[C@H](c2c(O)cc(O)c3c(=O)cc(-c4ccccc4Cl)oc23)[C@H](O)C1` [Flavopiridol], for which the “RARα protein (Western blot)” value with RARα is recorded as “did not yield upregulation of RARα”. For the same compound, the “mRNA level of RARA” value in the data set on RARA mRNA was “nor did it affect the mRNA level of RARA”. Besides, the “HH tumors in xenograft models” value with HH tumors is listed as “induced regression of HH tumors in vivo”.

For the compound `CC(C)C[C@@H](C=O)NC(=O)[C@H](CC(C)C)NC(=O)[C@H](CC(C)C)NC(=O)OCc1ccccc1` [MG132, reference compound] (Cbz-Leu-Leu-Leu-aldehyde), at CDK9 [7] (Hut78, GT-02897 in presence or absence of MG132), the “effect of MG132 on CDK9 loss induced by GT-02897” value is listed as “reverted the expression of CDK9 protein”.

Compound `O=C1NCCc2[nH]c(-c3ccncc3)cc21` [PHA-767491, reference compound] gave an IC50 in the data set with Hut78 cells [4] (Hut78 cells, 48-h, trypan blue) of 0.926 µM. Besides, the “effect of pre-treatment on degradation of CDK9 by GT-02897” value at CDK9 [11] is “significantly dampened the degradation of CDK9”.

Consider `CC(C)(C)c1cnc(CSc2cnc(NC(=O)C3CCNCC3)s2)o1` [SNS-032], for which the “effect of pre-treatment on degradation of CDK9 by GT-02897” value on CDK9 [11] is “significantly dampened the degradation of CDK9”. Moreover, in the data set with HH tumors, the “HH tumors in xenograft models” value was “induced regression of HH tumors in vivo”.

For the compound `CC(C)(C)c1cnc(CSc2cnc(NC(=O)C3CCN(CC(=O)NCCOCCOCCOCCNc4cccc5c4C(=O)N(C4CCC(=O)NC4=O)C5=O)CC3)s2)o1` (centres unmarked) [THAL-SNS-032], the “killing in CTCL cells” value in the data set on Hut78 cells [12] was “nor did it display effective killing”. The figures for the “CDK9 protein (Western blot)” value on CDK9 [13] and in the data set with CDK9 [14] were “induced significant loss of CDK9” and “did not disturb CDK9 protein”, respectively.
